The text below walks through data of BindingDB's records for doi:10.1016/j.bmcl.2009.09.081 (Lexicon Pharmaceuticals, 2009).

This experiment is described as follows: Inhibition of deoxycytidine kinase-mediated arabinoside C-induced cytotoxicity.

As for `NC(=O)c1ccc(-c2cccc(S(=O)(=O)N[C@H]3CC[C@H](n4cc(F)c(N)nc4=O)C3)c2)cc1` [3'-(N-((1S,3S)-3-(4-amino-5-fluoro-2-oxopyrimidin-1(2H)-yl)cyclopentyl)sulfamoyl)biphenyl-4-carboxamide], the midpoint of the response, the EC50, lay at 5900 nM.

Molecule `Nc1nc(=O)n([C@H]2CC[C@H](NS(=O)(=O)c3cccc(-c4ccc(Cl)cc4Cl)c3)C2)cc1F` [N-((1S,3S)-3-(4-amino-5-fluoro-2-oxopyrimidin-1(2H)-yl)cyclopentyl)-2',4'-dichlorobiphenyl-3-sulfonamide] had an EC50 of 530 nM.

As to `Nc1nc(=O)n([C@H]2CC[C@H](NS(=O)(=O)c3cccc(-c4ccccc4Cl)c3)C2)cc1F` [N-((1S,3S)-3-(4-amino-5-fluoro-2-oxopyrimidin-1(2H)-yl)cyclopentyl)-2'-chlorobiphenyl-3-sulfonamide], the concentration giving a half-maximal response (EC50) was determined as 430 nM.

In turn, `Nc1nc(=O)n([C@H]2CC[C@H](NC(=O)c3cccc(-c4cccc(Cl)c4)c3)C2)cc1F` [N-((1S,3S)-3-(4-amino-5-fluoro-2-oxopyrimidin-1(2H)-yl)cyclopentyl)-3'-chlorobiphenyl-3-carboxamide] displayed a concentration for a half-maximal effect (EC50) of 180 nM.

The molecule `Nc1nc(=O)n([C@H]2CC[C@H](NS(=O)(=O)c3cccc(-c4cccc(Cl)c4)c3)C2)cc1F` [N-((1S,3S)-3-(4-amino-5-fluoro-2-oxopyrimidin-1(2H)-yl)cyclopentyl)-3'-chlorobiphenyl-3-sulfonamide] gave an EC50 of 360 nM.

Take `Nc1nc(=O)n([C@H]2CC[C@H](NS(=O)(=O)c3cccc(Br)c3)C2)cc1F` [N-((1S,3S)-3-(4-amino-5-fluoro-2-oxopyrimidin-1(2H)-yl)cyclopentyl)-3-bromobenzenesulfonamide]: the response was half-maximal at 2800 nM (EC50).

`CS(=O)(=O)c1ccc(-c2cccc(S(=O)(=O)N[C@H]3CC[C@H](n4cc(F)c(N)nc4=O)C3)c2)cc1` [N-((1S,3S)-3-(4-amino-5-fluoro-2-oxopyrimidin-1(2H)-yl)cyclopentyl)-4'-(methylsulfonyl)biphenyl-3-sulfonamide]: the half-maximal effective concentration (EC50) amounted to 1800 nM.

`Cc1cc(Cl)ccc1-c1cccc(C(=O)N[C@H]2CC[C@H](n3cc(F)c(N)nc3=O)C2)c1` [N-((1S,3S)-3-(4-amino-5-fluoro-2-oxopyrimidin-1(2H)-yl)cyclopentyl)-4'-chloro-2'-methylbiphenyl-3-carboxamide] had a concentration giving a half-maximal response (EC50) of 170 nM.

As to `Cc1cc(Cl)ccc1-c1cccc(S(=O)(=O)N[C@H]2CC[C@H](n3cc(F)c(N)nc3=O)C2)c1` [N-((1S,3S)-3-(4-amino-5-fluoro-2-oxopyrimidin-1(2H)-yl)cyclopentyl)-4'-chloro-2'-methylbiphenyl-3-sulfonamide], the concentration for a half-maximal effect (EC50) is 290 nM.

Regarding `Nc1nc(=O)n([C@H]2CC[C@H](NC(=O)c3cccc(-c4ccc(Cl)cc4)c3)C2)cc1F` [N-((1S,3S)-3-(4-amino-5-fluoro-2-oxopyrimidin-1(2H)-yl)cyclopentyl)-4'-chlorobiphenyl-3-carboxamide], a half-maximal effect (EC50) was put at 270 nM.

`Nc1nc(=O)n([C@H]2CC[C@H](NS(=O)(=O)c3cccc(-c4ccc(Cl)cc4)c3)C2)cc1F` [N-((1S,3S)-3-(4-amino-5-fluoro-2-oxopyrimidin-1(2H)-yl)cyclopentyl)-4'-chlorobiphenyl-3-sulfonamide]: the concentration giving a half-maximal response (EC50) turned out to be 240 nM.

Turning to `N#Cc1ccc(-c2cccc(S(=O)(=O)N[C@H]3CC[C@H](n4cc(F)c(N)nc4=O)C3)c2)cc1` [N-((1S,3S)-3-(4-amino-5-fluoro-2-oxopyrimidin-1(2H)-yl)cyclopentyl)-4'-cyanobiphenyl-3-sulfonamide], the EC50 is 390 nM.

`COc1ccc(-c2cccc(C(=O)N[C@H]3CC[C@H](n4cc(F)c(N)nc4=O)C3)c2)cc1` [N-((1S,3S)-3-(4-amino-5-fluoro-2-oxopyrimidin-1(2H)-yl)cyclopentyl)-4'-methoxybiphenyl-3-carboxamide] gave a concentration giving a half-maximal response (EC50) of 100 nM.

Consider `COc1ccc(-c2cccc(S(=O)(=O)N[C@H]3CC[C@H](n4cc(F)c(N)nc4=O)C3)c2)cc1` [N-((1S,3S)-3-(4-amino-5-fluoro-2-oxopyrimidin-1(2H)-yl)cyclopentyl)-4'-methoxybiphenyl-3-sulfonamide], for which the concentration giving a half-maximal response (EC50) was 300 nM.

The molecule `Cc1ccc(-c2cccc(S(=O)(=O)N[C@H]3CC[C@H](n4cc(F)c(N)nc4=O)C3)c2)cc1` [N-((1S,3S)-3-(4-amino-5-fluoro-2-oxopyrimidin-1(2H)-yl)cyclopentyl)-4'-methylbiphenyl-3-sulfonamide] yielded a half-maximal effective concentration (EC50) of 500 nM.

For the molecule `Nc1nc(=O)n([C@H]2CC[C@H](NS(=O)(=O)c3ccc(Br)cc3)C2)cc1F` [N-((1S,3S)-3-(4-amino-5-fluoro-2-oxopyrimidin-1(2H)-yl)cyclopentyl)-4-bromobenzenesulfonamide], the EC50 was 11000 nM.

As to `Nc1nc(=O)n([C@H]2CC[C@H](NS(=O)(=O)c3ccc([N+](=O)[O-])cc3)C2)cc1F` [N-((1S,3S)-3-(4-amino-5-fluoro-2-oxopyrimidin-1(2H)-yl)cyclopentyl)-4-nitrobenzenesulfonamide], a half-maximal effect (EC50) was put at 16000 nM.

`Nc1nc(=O)n([C@H]2CC[C@H](NS(=O)(=O)c3ccccc3)C2)cc1F` [N-((1S,3S)-3-(4-amino-5-fluoro-2-oxopyrimidin-1(2H)-yl)cyclopentyl)benzenesulfonamide] yielded an EC50 of 17000 nM.

On to `Nc1nc(=O)n([C@H]2CC[C@H](NC(=O)c3cccc(-c4ccccc4)c3)C2)cc1F` [N-((1S,3S)-3-(4-amino-5-fluoro-2-oxopyrimidin-1(2H)-yl)cyclopentyl)biphenyl-3-carboxamide], for which the response was half-maximal at 910 nM (EC50).

Regarding `Nc1nc(=O)n([C@H]2CC[C@H](NS(=O)(=O)c3cccc(-c4ccccc4)c3)C2)cc1F` [N-((1S,3S)-3-(4-amino-5-fluoro-2-oxopyrimidin-1(2H)-yl)cyclopentyl)biphenyl-3-sulfonamide], the concentration for a half-maximal effect (EC50) amounted to 600 nM.

In turn, `Nc1nc(=O)n([C@H]2CC[C@H](NS(=O)(=O)c3ccc(-c4ccccc4)cc3)C2)cc1F` [N-((1S,3S)-3-(4-amino-5-fluoro-2-oxopyrimidin-1(2H)-yl)cyclopentyl)biphenyl-4-sulfonamide] gave an EC50 of 5500 nM.
